{"source": "patent US7025991B2", "about": "“Drug targeting system, method of its preparation and its use” (NanoDel Technologies GmbH, priority 1997, dated 2006)", "tested_on": "mice", "assay": "hot plate test (analgesic effect) after intravenous or oral application", "assay_type": "in vivo", "details": "intravenous injection, dalargin dose 10.0 mg/kg", "excerpt": "Dalargin was given either in solution, or after sorptive binding to nanoparticles. The groups (n=10) are as follows:\nDalargin was given either in solution, or after sorptive binding to nanoparticles. The data were collected at different time points following oral application.\nDalargin was given either in solution, or after sorptive binding to nanoparticles that were stabilized with Dextran 12.000.\nDalargin was adsorbed to poly(butyl cyanoacrylate) nanoparticles which were stabilized with polysorbate 85.\nAfter this time, the preparation was injected intravenously into mice at a dalargin dose of 10.0 mg/kg. Various preparations include pure dalargin solution and empty nanoparticles served as controls.\nActivity threshold was measured with the hot plate test.\n2. […] The analgesia was determined 30, 45, 60, 90, 120 and 150 min after p.o. application.\n4. To test the question whether other stabilizers may be used to achieve the desired effect, nanoparticles were investigated in which the stabilizer was the low molecular size dextran 12,000. The dextran 12,000 stabilized nanoparticles of Example 2 were loaded with dalargin, and the analgesic effect was determined in the hot plate test after intravenous injection into mice."}
{"substance": "dalargin", "values": [{"measurement": "analgesic effect, hot plate test", "result": "did not exhibit any analgesic effect"}, {"measurement": "analgesic effect, hot plate test", "setting": "listed as dalargin alone", "result": "None of the control groups (empty nanoparticles and dalargin alone) exhibited any analgesic effects"}]}
